pEC50: −log10 of the molar value.

For orientation: pEC50 means −log10 of the EC50, conventionally taken in molar units.

The target of the assay is GLP-1 Receptor (Homo sapiens, UniProt P43220). Nature of the assay: GLP-1R agonist cAMP stimulation assay (HEK293/GLP1R/CRE-Luc cells, HTRF cAMP). Format: cell-based. The following applies: HEK293/CRE-Luc cells stably expressing GLP-1 Receptor, 30 min, 37° C. As to the method: Activation of GLP-1 receptor is known to stimulate cyclic AMP (cAMP) production in cells which indicates primary coupling to the Gαs subunit of the G protein heterotrimeric complex.
To optimize functional activity directed toward Gαs coupling, a HEK293/CRE-Luc cell line developed by HDB stably expressing the GLP-1 Receptor was used. […] 1×10^5 cells/mL HEK293/GLP1R/CRE-LUC(HD Biosciences) cell suspensions prepared with assay buffer[DPBS containing 0.5 mM IBMX (Sigma, Cat #I5879) and 0.1% BSA (GENVIEW, Cat #FA016-100g)], 10 uL cell suspensions were added to each well of previous generated assay plate which already contains 50 nl compound at 200×concentration using ThermoFisher Multidrop Combi (1000 cells/well). Seal the plate and incubate at 37° C. with 5% CO2 for 30 min.
After incubation the cAMP assay signal was generated using cAMP dynamic 2 Kit (Cisbio). 5 μL cAMP-d2 working solution was added to each well, followed with 5 μL Anti-cAMP antibody-cryptate working solution added to each well using ThermoFisher Multidrop Combi. Incubate at room temperature for 1 hour protected from light.
A general note: Time-resolved FRET reads energy transfer from a long-lived donor to a nearby acceptor.

GLP-1 Receptor, sequence (P43220 24-463): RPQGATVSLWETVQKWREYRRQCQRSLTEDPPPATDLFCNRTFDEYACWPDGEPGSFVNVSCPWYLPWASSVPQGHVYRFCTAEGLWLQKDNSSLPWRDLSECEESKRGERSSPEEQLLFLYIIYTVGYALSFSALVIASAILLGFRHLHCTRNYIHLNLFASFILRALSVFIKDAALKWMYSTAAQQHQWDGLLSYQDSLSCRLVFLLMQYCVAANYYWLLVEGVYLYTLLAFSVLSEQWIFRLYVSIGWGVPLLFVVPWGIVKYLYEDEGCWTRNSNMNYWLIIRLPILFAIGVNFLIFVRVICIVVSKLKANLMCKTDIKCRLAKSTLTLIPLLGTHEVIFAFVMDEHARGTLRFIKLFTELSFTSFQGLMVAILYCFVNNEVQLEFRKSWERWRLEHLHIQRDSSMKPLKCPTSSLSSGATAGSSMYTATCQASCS

On to `O=C(O)c1ccc2nc(CN3CCC(Oc4ccnc(Cc5ccc(Cl)cc5F)n4)CC3)n(C[C@@H]3CCO3)c2c1` [Compound 160a, 2-{[4-({2-[(4-chloro-2-fluorophenyl)methyl]pyrimidin-4-yl}oxy)piperidin-1-yl]methyl}-1-{[(2S)-oxetan-2-yl]methyl}-1H-1,3-benzodiazole-6-carboxylic acid], for which the “GLP1R cAMP Stimulation DR: pEC50” value was 9.9. On the same count and under the same terms, under `N#Cc1ccc(Cc2nccc(O[C@H]3CC[C@H](Cc4nc5ccc(C(=O)O)nc5n4C[C@@H]4CCO4)CC3)n2)cc1` [Compound 182a, 3-{[(2S)-oxetan-2-yl]methyl}-2-{[trans-4-({2-[(4-cyanophenyl)methyl]pyrimidin-4-yl}oxy)cyclohexyl]methyl}-3H-imidazo[4,5-b]pyridine-5-carboxylic acid] stands 10.2; under `O=C(O)c1ccc2nc(CN3CCC(Oc4cc(Cl)cc(Cc5ccc(Cl)cc5)n4)CC3)n(C[C@@H]3CCO3)c2n1` [Compound 155a, 2-{[4-({4-chloro-6-[(4-chlorophenyl)methyl]pyridin-2-yl}oxy)piperidin-1-yl]methyl}-3-{[(2S)-oxetan-2-yl]methyl}-3H-imidazo[4,5-b]pyridine-5-carboxylic acid], 8.4.

In the case of `O=C(O)c1ccc2nc(CN3CCC(Oc4cccc(Cc5cccc(Cl)c5)n4)CC3)n(C[C@@H]3CCO3)c2n1` [Compound 125a, (S)-2-((4-((6-(3-chlorobenzyl)pyridin-2-yl)oxy)piperidin-1-yl)methyl)-3-(oxetan-2-ylmethyl)-3H-imidazo[4,5-b]pyridine-5-carboxylic acid], the “GLP1R cAMP Stimulation DR: pEC50” value was determined as 8.9. On to `O=C(O)c1ccc2nc(CN3CCC(Oc4ccnc(Cc5ccc(F)cc5F)n4)CC3)n(C[C@@H]3CCO3)c2n1` [Compound 165a, 2-{[4-({2-[(2,4-difluorophenyl)methyl]pyrimidin-4-yl}oxy)piperidin-1-yl]methyl}-3-{[(2S)-oxetan-2-yl]methyl}-3H-imidazo[4,5-b]pyridine-5-carboxylic acid], for which the “GLP1R cAMP Stimulation DR: pEC50” value is 9.4. The negative logarithm of the EC50 (pEC50) (read-out: GLP1R cAMP Stimulation DR: EC50) is 9.40.

Turning to `O=C(O)c1ccc2nc(Cc3ccc(Oc4nc(Cc5ccc(Cl)cc5)ncc4F)cc3F)n(C[C@@H]3CCO3)c2c1` [Compound 191a, 2-{[4-({2-[(4-chlorophenyl)methyl]-5-fluoropyrimidin-4-yl}oxy)-2-fluorophenyl]methyl}-1-{[(2S)-oxetan-2-yl]methyl}-1H-1,3-benzodiazole-6-carboxylic acid], the “GLP1R cAMP Stimulation DR: pEC50” value came out at 9.5. The same measure, in the same setting: under `O=C(O)c1ccc2nc(CN3CCC(Oc4cccc(Cc5ccc(C(F)(F)F)cc5)n4)CC3)n(C[C@@H]3CCO3)c2n1` [Compound 145a, 3-{[(2S)-oxetan-2-yl]methyl}-2-({4-[(6-{[4-(trifluoromethyl)phenyl]methyl}pyridin-2-yl)oxy]piperidin-1-yl}methyl)-3H-imidazo[4,5-b]pyridine-5-carboxylic acid] stands 8.5; under `O=C(O)c1ccc2nc(Cc3ccc(Oc4nc(Cc5ccc(Cl)cc5)ncc4F)cc3F)n(C[C@@H]3CCO3)c2n1` [Compound 190a, 2-{[4-({2-[(4-chlorophenyl)methyl]-5-fluoropyrimidin-4-yl}oxy)-2-fluorophenyl]methyl}-3-{[(2S)-oxetan-2-yl]methyl}-3H-imidazo[4,5-b]pyridine-5-carboxylic acid], 9.4; under `O=C(O)c1ccc2nc(CN3CC4CC(Oc5ccnc(Cc6ccc(Cl)cc6)n5)CC4C3)n(C[C@@H]3CCO3)c2n1` (stereo partly drawn) [Compound 201a, 2-{[5-({2-[(4-chlorophenyl)methyl]pyrimidin-4-yl}oxy)-octahydrocyclopenta[c]pyrrol-2-yl]methyl}-3-{[(2S)-oxetan-2-yl]methyl}-3H-imidazo[4,5-b]pyridine-5-carboxylic acid], 6.4.

Regarding `O=C(O)c1ccc2nc(CN3CCC(Oc4cccc(Cc5ccc(Cl)cc5)c4Cl)CC3)n(C[C@@H]3CCO3)c2n1` [Compound 158a, 2-[(4-{2-chloro-3-[(4-chlorophenyl)methyl]phenoxy}piperidin-1-yl)methyl]-3-{[(2S)-oxetan-2-yl]methyl}-3H-imidazo[4,5-b]pyridine-5-carboxylic acid], the “GLP1R cAMP Stimulation DR: pEC50” value is given as less than 6.0.

As to `O=C(O)c1ccc2nc(C[C@H]3CC[C@@H](Oc4ccnc(Cc5ccc(Cl)cc5F)n4)CC3)n(C[C@@H]3CCO3)c2n1` [Compound 175a, 3-{[(2S)-oxetan-2-yl]methyl}-2-{[cis-4-({2-[(4-chloro-2-fluorophenyl)methyl]pyrimidin-4-yl}oxy)cyclohexyl]methyl}-3H-imidazo[4,5-b]pyridine-5-carboxylic acid], the “GLP1R cAMP Stimulation DR: pEC50” value is given as 6.6. Consider `O=C(O)c1ccc2nc(C[C@H]3CC[C@H](Oc4cccc(Cc5ccc(Cl)cc5F)n4)CC3)n(C[C@@H]3CCO3)c2n1` [Compound 174b, 3-{[(2S)-oxetan-2-yl]methyl}-2-{[trans-4-({6-[(4-chloro-2-fluorophenyl)methyl]pyridin-2-yl}oxy)cyclohexyl]methyl}-3H-imidazo[4,5-b]pyridine-5-carboxylic acid], for which the “GLP1R cAMP Stimulation DR: pEC50” value was 9.9. The same measure, in the same setting: under `O=C(O)c1ccc2nc(CN3CCC(Oc4ccnc(Cc5ccc(Cl)c(Cl)c5)n4)CC3)n(C[C@@H]3CCO3)c2n1` [Compound 167a, 2-{[4-({2-[(3,4-dichlorophenyl)methyl]pyrimidin-4-yl}oxy)piperidin-1-yl]methyl}-3-{[(2S)-oxetan-2-yl]methyl}-3H-imidazo[4,5-b]pyridine-5-carboxylic acid] stands 9.9. The same measure, in the same setting: under `N#Cc1ccc(Cc2cccc(OC3CCN(Cc4nc5ccc(C(=O)O)nc5n4C[C@@H]4CCO4)CC3)n2)c(F)c1` [Compound 136a, 2-{[4-({6-[(4-cyano-2-fluorophenyl)methyl]pyridin-2-yl}oxy)piperidin-1-yl]methyl}-3-{[(2S)-oxetan-2-yl]methyl}-3H-imidazo[4,5-b]pyridine-5-carboxylic acid] stands 9.4. The same measure, in the same setting: for `COC(C)Cn1c(CN2CCC(Oc3ccnc(Cc4ccc(Cl)cc4)n3)CC2)nc2ccc(C(=O)O)nc21` (centres unmarked) [Compound 195, 2-((4-((2-(4-chlorobenzyl)pyrimidin-4-yl)oxy)piperidin-1-yl)methyl)-3-(2-methoxypropyl)-3H-imidazo[4,5-b]pyridine-5-carboxylic acid] the value was 9.2; for `O=C(O)c1ccc2nc(C[C@H]3CC[C@H](Oc4ccnc(Cc5ccc(Cl)cc5)n4)CC3)n(C[C@@H]3CCO3)c2n1` [Compound 177a, 3-{[(2S)-oxetan-2-yl]methyl}-2-{[trans-4-({2-[(4-chlorophenyl)methyl]pyrimidin-4-yl}oxy)cyclohexyl]methyl}-3H-imidazo[4,5-b]pyridine-5-carboxylic acid], 10.4.

Consider `O=C(O)c1ccc2nc(Cc3ccc(Oc4ccnc(Cc5ccc(Cl)cc5)n4)cc3)n(C[C@@H]3CCO3)c2n1` [Compound 186a, 2-{[4-({2-[(4-chlorophenyl)methyl]pyrimidin-4-yl}oxy)phenyl]methyl}-3-{[(2S)-oxetan-2-yl]methyl}-3H-imidazo[4,5-b]pyridine-5-carboxylic acid], for which the “GLP1R cAMP Stimulation DR: pEC50” value is recorded as 9.2. Same read-out and setting: for `O=C(O)c1ccc2nc(CN3CCC(Oc4cc(Cc5ccc(Cl)cc5F)ccc4F)CC3)n(C[C@@H]3CCO3)c2n1` [Compound 114a, 2-[(4-{5-[(4-chloro-2-fluorophenyl)methyl]-2-fluorophenoxy}piperidin-1-yl)methyl]-3-{[(2S)-oxetan-2-yl]methyl}-3H-imidazo[4,5-b]pyridine-5-carboxylic acid] the value was 8.8. Same read-out and setting: under `N#Cc1ccc(Cc2cccc(OC3CCN(Cc4nc5ccc(C(=O)O)cc5n4C[C@@H]4CCO4)CC3)n2)c(F)c1` [Compound 135a, 2-{[4-({6-[(4-cyano-2-fluorophenyl)methyl]pyridin-2-yl}oxy)piperidin-1-yl]methyl}-1-{[(2S)-oxetan-2-yl]methyl}-1H-1,3-benzodiazole-6-carboxylic acid] stands 8.7. Still for that read-out and setting: under `O=C(O)c1ccc2nc(CN3CCC(Oc4nn(Cc5ccc(Cl)cc5F)cc4Cl)CC3)n(C[C@@H]3CCO3)c2n1` [Compound 183a, 2-{[4-({4-chloro-1-[(4-chloro-2-fluorophenyl)methyl]-1H-pyrazol-3-yl}oxy)piperidin-1-yl]methyl}-3-{[(2S)-oxetan-2-yl]methyl}-3H-imidazo[4,5-b]pyridine-5-carboxylic acid] stands 9.1; under `CCOCCn1c(CN2CCC(Oc3ccnc(Cc4ccc(Cl)cc4)n3)CC2)nc2ccc(C(=O)O)nc21` [Compound 194, 2-((4-((2-(4-chlorobenzyl)pyrimidin-4-yl)oxy)piperidin-1-yl)methyl)-3-(2-ethoxyethyl)-3H-imidazo[4,5-b]pyridine-5-carboxylic acid], 8.5. As for `Cc1cn(Cc2ccc(Cl)cc2F)nc1OC1CCN(Cc2nc3ccc(C(=O)O)nc3n2C[C@@H]2CCO2)CC1` [Compound 133a, 2-{[4-({1-[(4-chloro-2-fluorophenyl)methyl]-4-methyl-1H-pyrazol-3-yl}oxy)piperidin-1-yl]methyl}-3-{[(2S)-oxetan-2-yl]methyl}-3H-imidazo[4,5-b]pyridine-5-carboxylic acid], the “GLP1R cAMP Stimulation DR: pEC50” value is recorded as 8.6.
